ChEMBL document CHEMBL5360618, “PepScaf: Harnessing Machine Learning with In Vitro Selection toward De Novo Macrocyclic Peptides against IL-17C/IL-17RE Interaction” (J Med Chem, 2023)
Positions of bridges follow the written chain, without caps; N, C: chain ends. Residues, ends and D or L forms follow the SMILES beside them.

Molecular target: T1, IL17-RE-IL-17C (Homo sapiens, UniProt Q8NFR9+Q9P0M4)
T1 sequence (Q9P0M4 whole entry): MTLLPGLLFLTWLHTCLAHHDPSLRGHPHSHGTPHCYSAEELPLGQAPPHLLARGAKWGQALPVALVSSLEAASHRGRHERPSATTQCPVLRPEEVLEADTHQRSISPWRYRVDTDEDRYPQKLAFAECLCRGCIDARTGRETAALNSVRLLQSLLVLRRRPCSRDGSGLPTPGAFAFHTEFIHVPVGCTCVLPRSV
T1 sequence (Q8NFR9 whole entry): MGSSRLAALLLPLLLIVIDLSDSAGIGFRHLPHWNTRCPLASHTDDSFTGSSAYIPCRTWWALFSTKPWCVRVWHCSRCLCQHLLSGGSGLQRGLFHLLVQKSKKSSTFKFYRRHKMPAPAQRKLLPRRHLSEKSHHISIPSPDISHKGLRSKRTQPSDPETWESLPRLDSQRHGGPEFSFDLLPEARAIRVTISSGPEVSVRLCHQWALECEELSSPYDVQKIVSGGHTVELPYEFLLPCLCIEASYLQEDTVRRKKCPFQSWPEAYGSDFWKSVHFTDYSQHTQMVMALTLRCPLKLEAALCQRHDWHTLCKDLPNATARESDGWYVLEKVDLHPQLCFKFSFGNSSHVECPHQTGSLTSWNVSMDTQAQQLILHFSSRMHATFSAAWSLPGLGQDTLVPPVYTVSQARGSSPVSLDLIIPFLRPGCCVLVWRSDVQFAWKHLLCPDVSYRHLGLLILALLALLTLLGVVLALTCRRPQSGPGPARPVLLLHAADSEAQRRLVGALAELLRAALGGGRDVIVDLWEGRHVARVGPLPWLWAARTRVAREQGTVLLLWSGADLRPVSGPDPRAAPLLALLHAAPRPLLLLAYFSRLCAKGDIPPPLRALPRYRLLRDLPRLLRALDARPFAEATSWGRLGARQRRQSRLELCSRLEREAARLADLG
Assay: Inhibition of IL-17C/IL-17RE interaction (unknown origin) incubated for 1.5 hrs by ELISA method
Format: protein-complex assay

Which IC50 does the source give for `CC(C)C[C@@H]1NC(=O)[C@H](C)NC(=O)[C@H]([C@@H](C)O)NC(=O)[C@H](C)NC(=O)[C@H](CC(C)C)NC(=O)[C@H](Cc2c[nH]c3ccccc23)NC(=O)[C@H](CO)NC(=O)[C@H](CC(=O)O)NC(=O)[C@H](Cc2ccccc2)NC(=O)[C@H](Cc2c[nH]cn2)NC(=O)[C@H](Cc2ccc(O)cc2)NC(=O)CSC[C@@H](C(=O)NCC(N)=O)NC(=O)[C@H](CCCNC(=N)N)NC1=O` ({CH2CO}-YHFDSWLATALRCG-NH2; thioether N-13) here?
Its IC50 is over 30000 nM.

Which IC50 does the source give for `CC(C)C[C@@H]1NC(=O)[C@H](CC(N)=O)NC(=O)CNC(=O)[C@H](Cc2ccc(O)cc2)NC(=O)[C@H](CC(C)C)NC(=O)[C@H](CC(C)C)NC(=O)[C@H](CCCNC(=N)N)NC(=O)[C@H](Cc2ccc(O)cc2)NC(=O)[C@H](Cc2ccc(O)cc2)NC(=O)[C@H](CCC(N)=O)NC(=O)[C@H](Cc2c[nH]cn2)NC(=O)[C@H](Cc2ccc(O)cc2)NC(=O)CSC[C@@H](C(=O)NCC(N)=O)NC(=O)CNC1=O` ({CH2CO}-YHQYYRLLYGNLGCG-NH2; thioether N-14) here?
The IC50 was 26.4 nM.

For `CC[C@H](C)[C@@H]1NC(=O)[C@H](Cc2c[nH]cn2)NC(=O)[C@H](Cc2ccc(O)cc2)NC(=O)CSC[C@@H](C(=O)NCC(N)=O)NC(=O)CNC(=O)[C@H](CC(C)C)NC(=O)[C@H](Cc2c[nH]cn2)NC(=O)CNC(=O)[C@H](Cc2ccc(O)cc2)NC(=O)[C@H](CC(C)C)NC(=O)[C@H](CO)NC(=O)[C@H](Cc2ccccc2)NC(=O)[C@H](Cc2ccc(O)cc2)NC(=O)[C@H](Cc2ccc(O)cc2)NC1=O` ({CH2CO}-YHIYYFSLYGHLGCG-NH2; thioether N-14), which IC50 is on record?
The IC50 was 6.2 nM.

Which IC50 does the source give for `CC[C@H](C)[C@@H]1NC(=O)[C@H](CCCNC(=N)N)NC(=O)[C@H](Cc2ccc(O)cc2)NC(=O)[C@H](Cc2c[nH]cn2)NC(=O)[C@H](Cc2c[nH]cn2)NC(=O)[C@H](Cc2c[nH]cn2)NC(=O)[C@H](Cc2ccc(O)cc2)NC(=O)CSC[C@@H](C(=O)NCC(N)=O)NC(=O)CNC(=O)[C@H](CC(C)C)NC(=O)[C@H](CCC(=O)O)NC(=O)CNC(=O)[C@H](Cc2ccc(O)cc2)NC(=O)[C@H](CC(C)C)NC1=O` ({CH2CO}-YHHHYRILYGELGCG-NH2; thioether N-14) here?
Its IC50 is 6850 nM.

How did the IC50 turn out when `CC[C@H](C)[C@@H]1NC(=O)[C@H](CCCNC(=N)N)NC(=O)[C@H](Cc2ccc(O)cc2)NC(=O)[C@H](Cc2ccc(O)cc2)NC(=O)[C@H](Cc2c[nH]cn2)NC(=O)[C@H](Cc2c[nH]cn2)NC(=O)[C@H](Cc2ccc(O)cc2)NC(=O)CSC[C@@H](C(=O)NCC(N)=O)NC(=O)CNC(=O)[C@H](CC(C)C)NC(=O)CNC(=O)CNC(=O)[C@H](Cc2ccc(O)cc2)NC(=O)[C@H](CC(C)C)NC1=O` ({CH2CO}-YHHYYRILYGGLGCG-NH2; thioether N-14) was run?
Its IC50 is 211 nM.

How did the IC50 turn out when `CC[C@H](C)[C@@H]1NC(=O)[C@H](Cc2c[nH]cn2)NC(=O)[C@H](Cc2ccc(O)cc2)NC(=O)CSC[C@@H](C(=O)NCC(N)=O)NC(=O)CNC(=O)[C@H](CC(C)C)NC(=O)[C@H](C)NC(=O)CNC(=O)[C@H](Cc2ccc(O)cc2)NC(=O)[C@H](CC(C)C)NC(=O)[C@H](CO)NC(=O)[C@H](C)NC(=O)[C@H](Cc2ccc(O)cc2)NC(=O)[C@H](Cc2ccc(O)cc2)NC1=O` ({CH2CO}-YHIYYASLYGALGCG-NH2; thioether N-14) was run?
Its IC50 is 9.2 nM.

Which IC50 does the source give for `CC[C@H](C)[C@@H]1NC(=O)[C@H](CCCNC(=N)N)NC(=O)[C@H](Cc2ccccc2)NC(=O)[C@H](Cc2ccc(O)cc2)NC(=O)[C@H](Cc2c[nH]cn2)NC(=O)[C@H](Cc2c[nH]cn2)NC(=O)[C@H](Cc2ccc(O)cc2)NC(=O)CSC[C@@H](C(=O)NCC(N)=O)NC(=O)CNC(=O)[C@H](CC(C)C)NC(=O)[C@H](CCC(=O)O)NC(=O)CNC(=O)[C@H](Cc2ccc(O)cc2)NC(=O)[C@H](CC(C)C)NC1=O` ({CH2CO}-YHHYFRILYGELGCG-NH2; thioether N-14) here?
The IC50 was 3970 nM.

Which IC50 does the source give for `CC[C@H](C)[C@@H]1NC(=O)[C@H](CCCNC(=N)N)NC(=O)[C@H](Cc2ccc(O)cc2)NC(=O)[C@H](Cc2ccc(O)cc2)NC(=O)[C@@H]2CCCN2C(=O)[C@H](Cc2c[nH]cn2)NC(=O)[C@H](Cc2ccc(O)cc2)NC(=O)CSC[C@@H](C(=O)NCC(N)=O)NC(=O)CNC(=O)[C@H](CC(C)C)NC(=O)[C@H](CCC(=O)O)NC(=O)CNC(=O)[C@H](Cc2ccc(O)cc2)NC(=O)[C@H](CC(C)C)NC1=O` ({CH2CO}-YHPYYRILYGELGCG-NH2; thioether N-14) here?
The IC50 was over 30000 nM.

How did the IC50 turn out when `CC(C)C[C@@H]1NC(=O)[C@H](CO)NC(=O)CNC(=O)[C@H](Cc2ccc(O)cc2)NC(=O)[C@H](CC(C)C)NC(=O)[C@H](CO)NC(=O)[C@H](CCC(N)=O)NC(=O)[C@H](Cc2ccc(O)cc2)NC(=O)[C@H](Cc2ccc(O)cc2)NC(=O)[C@H](C(C)C)NC(=O)[C@H](Cc2c[nH]cn2)NC(=O)[C@H](Cc2ccc(O)cc2)NC(=O)CSC[C@@H](C(=O)NCC(N)=O)NC(=O)CNC1=O` ({CH2CO}-YHVYYQSLYGSLGCG-NH2; thioether N-14) was run?
The IC50 was 7.9 nM.

How did the IC50 turn out when `CC[C@H](C)[C@@H]1NC(=O)[C@H](CCCNC(=N)N)NC(=O)[C@H](Cc2ccc(O)cc2)NC(=O)[C@H](Cc2ccc(O)cc2)NC(=O)[C@H](Cc2c[nH]cn2)NC(=O)[C@H](Cc2c[nH]cn2)NC(=O)[C@H](Cc2ccc(O)cc2)NC(=O)CSC[C@@H](C(=O)NCC(N)=O)NC(=O)CNC(=O)[C@H](CC(C)C)NC(=O)[C@H](CCC(=O)O)NC(=O)CNC(=O)[C@H](Cc2ccc(O)cc2)NC(=O)[C@H](CC(C)C)NC1=O` ({CH2CO}-YHHYYRILYGELGCG-NH2; thioether N-14) was run?
Its IC50 is 166 nM.

Which IC50 does the source give for `CC[C@H](C)[C@@H]1NC(=O)[C@H](Cc2c[nH]cn2)NC(=O)[C@H](Cc2ccc(O)cc2)NC(=O)CSC[C@@H](C(=O)NCC(N)=O)NC(=O)CNC(=O)[C@H](CC(C)C)NC(=O)[C@H](CC(C)C)NC(=O)CNC(=O)[C@H](Cc2ccc(O)cc2)NC(=O)[C@H](CC(C)C)NC(=O)[C@H](CO)NC(=O)[C@H](C)NC(=O)[C@H](Cc2ccc(O)cc2)NC(=O)[C@H](Cc2ccc(O)cc2)NC1=O` ({CH2CO}-YHIYYASLYGLLGCG-NH2; thioether N-14) here?
Its IC50 is 12 nM.

For `CC[C@H](C)[C@@H]1NC(=O)[C@H](Cc2c[nH]cn2)NC(=O)[C@H](Cc2ccc(O)cc2)NC(=O)CSC[C@@H](C(=O)NCC(N)=O)NC(=O)CNC(=O)[C@H](CC(C)C)NC(=O)[C@H](CC(N)=O)NC(=O)CNC(=O)[C@H](Cc2ccc(O)cc2)NC(=O)[C@H](CC(C)C)NC(=O)[C@H]([C@@H](C)CC)NC(=O)[C@H](CCCNC(=N)N)NC(=O)[C@H](Cc2ccc(O)cc2)NC(=O)[C@H](Cc2ccc(O)cc2)NC1=O` ({CH2CO}-YHIYYRILYGNLGCG-NH2; thioether N-14), which IC50 is on record?
The IC50 was 4.5 nM.

For `CC[C@H](C)[C@@H]1NC(=O)[C@H](Cc2c[nH]cn2)NC(=O)[C@H](Cc2ccc(O)cc2)NC(=O)CSC[C@@H](C(=O)NCC(N)=O)NC(=O)CNC(=O)[C@H](CC(C)C)NC(=O)[C@H](CCCNC(=N)N)NC(=O)CNC(=O)[C@H](Cc2ccc(O)cc2)NC(=O)[C@H](CC(C)C)NC(=O)[C@H](CO)NC(=O)[C@H](Cc2ccccc2)NC(=O)[C@H](Cc2ccc(O)cc2)NC(=O)[C@H](Cc2ccc(O)cc2)NC1=O` ({CH2CO}-YHIYYFSLYGRLGCG-NH2; thioether N-14), which IC50 is on record?
Its IC50 is 3 nM.
